Test results reported in patent publication US20140335050A1, “METHODS, COMPOSITIONS, AND KITS FOR THE TREATMENT OF CANCER” (The General Hospital Corporation, priority 2011, published 2014).

Columns and labels:
Type in all cases: cell-based, human
[1] = test system: MU89 MART::EGFP cell line; assay: Melan-A/MART-1 promoter-driven EGFP reporter, kinetics by flow cytometry; settings: MU89 MART::EGFP (FIG. 11)
Protocol: FIG. 11 is a set of four graphs showing the kinetics of Melan-A/MART-1 increase. […] The same number of cells per well were plated in each well of a 24 well plate and drug was added on day zero. Each day cells were collected and assayed for that time point. Control untreated cells are shown for comparison. The data are from one representative experiment.
A kinetic analysis was performed to determine the effect of Hsp90 inhibition on Melan-A/MART-1 promoter activity over time. […] Reporter activity increases steadily for the first 72 hours of Hsp90 inhibition, and then plateaus. The need for continued presence of Hsp90 inhibitors in order for them to be effective (i.e. whether the drug can be removed after short exposure, or whether it must it be continually present) was assessed. […] To achieve full signal enhancement, it is desirable to retain the drug for at least 48 hours, after which the effect remains constant or slightly decreases.
The generation and application of EGFP reporter cells has been previously described. Briefly, a 1200 base pair human genomic DNA segment encompassing the Melan-A/MART-1 promoter was used to generate a construct driving expression of the EGFP reporter gene. Stable transfectants with this construct were generated in the low-antigen cell line A375 and the high-antigen line MM96L+ and MU89. The EGFP expression response patterns of these cells to IFN-beta and MAP kinase inhibitors recapitulates the antigen up-regulation of endogenous Melan-A/MART-1 induced by these agents.
(§1) Intracellular staining and flow cytometric analyses of cytoplasmic Melan-A/MART-1, and gp100 expression were performed as described previously. Cells were fixed with 1% formaldehyde, permeabilized with 0.1% saponin, stained with monoclonal antibodies to melanocyte antigens. Antibodies were obtained with specificity for: Melan-A/MART-1 from Vector Labs (Burlingame, Calif.); gp100/HMB45 from DakoCytomation (Carpinteria, Calif.) and then visualized with goat anti-mouse FITC-conjugated secondary antibody from Invitrogen (Frederick, Md.). The level of EGFP was determined by flow cytometry of unfixed cells washed and resuspended in 1×PBS. Surface staining of MHC Class I was carried out using the antibody W6/32 on cells harvested with Cell Stripper from MediaTech Inc. (Manassas, Va.) and carried out on ice.

[2] = test system: MM96L+ melanoma cell line; assay: Intracellular antibody staining and flow cytometry (Melan-A/MART-1, gp100/HMB45); settings: MM96L+ (BRAF M/WT, NRAS WT); 3 days; 17-AEP 1.00, CCT018159 5.00, PU-H71 0.30 μg/ml
Protocol: Several cell lines expressing varying native-sequences, (wild-type (WT) or mutant (M) alleles of these genes were evaluated), to determine if there is a relationship between levels of Hsp90 inhibitor-mediated antigen up-regulation and BRAF and NRAS mutational status. Mutant status of the NRAS and BRAF loci were determined previously.
Cells were plated at a density of 1×10^5 in 1 ml of medium in a 24-well plate and cultured for varying times as indicated in results. Typically, 3 days of culture in the presence of Hsp90 inhibitors was optimal for the functional studies performed. After incubation, cells were collected by trypsinization and then evaluated by flow cytometry.
as §1, with “Surface staining of MHC Class I was carried out using the antibody W6/32 on cells harvested with Cell Stripper from MediaTech Inc. (Manassas, Va.) and carried out on ice.” left out

A375 melanoma cell line = assay: Antibody staining and flow cytometry (intracellular Melan-A/MART-1, gp100, TRP-2; surface MHC Class I)
Protocol: (§2) Cells were fixed with 1% formaldehyde, permeabilized with 0.1% saponin, stained with monoclonal antibodies to melanocyte antigens. Antibodies were obtained with specificity for: MART-1 from Vector Labs (Burlingame, Calif.); gp100 HMB45 from DakoCytomation (Carpinteria, Calif.) and then visualized with goat anti-mouse FITC-conjugated secondary antibody from Invitrogen (Fredrick, Md.). The level of EGFP was determined by flow cytometry of unfixed cells that were washed and resuspended in 1×PBS.
(§3) Cells were plated at a density of 1×10^5 in 1 ml of medium in a 24-well plate and cultured for varying times as indicated in results. […] After incubation, cells were collected by trypsinization and then evaluated by flow cytometry.
as §1
(§4) Cell were seeded at 1×10^6 cells in a T25 flask with 10 ml of media for the 4 day IFN-beta pre-treatments. Cells were then harvested and plated in 24 well plate at 1×10^5 cells per well in 1 ml of media for 3 day treatments.
(§5) For surface staining of HLA Class I and II antigens, cells were harvested using CellStripper™ from Mediatech (Manassas, Va.). All staining steps were performed on ice. Following a first incubation with antibody to Class I (W6/32) or Class II (L243) for 30 minutes. Stained cells were washed twice with cold PBS and then stained with a goat anti-mouse FITC secondary antibody to allow for quantitative analysis by flow cytometry. For evaluation of cytoplasmic antigens, including Melan-A/MART-1 and gp100, cells were first fixed in paraformaldehyde and permeabilized with saponin as previously described. Staining for cytoplasmic antigens was carried out at room temperature (22° C.).

MUX melanoma cell line = assay: as above
Protocol: as §2, §3, §1, §4, §5

453A melanoma cell line = assay: Intracellular antibody staining and flow cytometry (Melan-A/MART-1, gp100/HMB45); settings: 453A (BRAF M/WT, NRAS WT); 3 days; 17-AEP 1.00, CCT018159 10.00, PU-H71 0.30 μg/ml
Protocol: as §2, §3
as §1, with “Surface staining of MHC Class I was carried out using the antibody W6/32 on cells harvested with Cell Stripper from MediaTech Inc. (Manassas, Va.) and carried out on ice.” left out

[3] = 3 days, IFN-beta 5000 Units/ml, 17-AEP 0.5, PU-H71 0.15, CCT018159 2.5 μg/ml
[4] = 4 day IFN-β pre-treatment (5000 Units/ml), then 3 days with fresh IFN-β and the labelled HSP90 inhibitor (label IFN-β: no inhibitor), 17-AEP 0.5, PU-H71 0.15, CCT018159 2.5
[5] = 4 day IFN-β pre-treatment (5000 Units/ml), then 3 days without IFN-β with the labelled HSP90 inhibitor (label IFN-β: no inhibitor), 17-AEP 0.5, PU-H71 0.15, CCT018159 2.5
[6] = single agent for 3 days, no IFN-β pre-treatment, IFN-β 5000 Units/ml, 17-AEP 0.5, PU-H71 […], CCT018159 2.5
[7] = three days, IFN-β 5000 Units/ml, 17-AEP 0.5, PU-H71 […], CCT018159 2.5
[8] = MUX (BRAF M/M, NRAS WT), 3 days, 17-AEP 0.50, CCT018159 5.00, PU-H71 0.30 μg/ml
[9] = MUX, 3 days, IFN-beta 5000 Units/ml, 17-AEP 1.0, PU-H71 0.3, CCT018159 10.0 μg/ml
[10] = MUX, 4 day IFN-β pre-treatment (5000 Units/ml), then 3 days with fresh IFN-β and the labelled HSP90 inhibitor (label IFN-β: no inhibitor), 17-AEP 1, PU-H71 0.3, CCT018159 10 mg/ml
[11] = MUX, 4 day IFN-β pre-treatment (5000 Units/ml), then 3 days without IFN-β with the labelled HSP90 inhibitor (label IFN-β: no inhibitor), 17-AEP 1, PU-H71 0.3, CCT018159 10 mg/ml
[12] = MUX, single agent for 3 days, no IFN-β pre-treatment, IFN-β 5000 Units/ml, 17-AEP 1 μg/ml, PU-H71 0.3 μg/ml, CCT018159 10 μg/ml

SMILES | Time at which the fluorescent reporter signal is significantly enhanced (as early as) [1] | Class I, geometric mean of surface staining (W6/32) (A375 melanoma cell line; [3]) | MART-1, geometric mean of intracellular staining (A375 melanoma cell line; [3]) | TRP-2, geometric mean of intracellular staining (A375 melanoma cell line; [3]) | gp100, geometric mean of intracellular staining (A375 melanoma cell line; [3]) | MHC Class I, geometric mean of surface staining (W6/32) (A375 melanoma cell line; [4]) | MHC Class I, geometric mean of surface staining (W6/32) (A375 melanoma cell line; [5]) | MHC Class I, geometric mean of surface staining (W6/32) (A375 melanoma cell line; [6]) | MHC Class I, geometric mean of surface staining (W6/32) (A375 melanoma cell line; [7]) | Class I, geometric mean of surface staining (W6/32) (MUX melanoma cell line; [9]) | MART-1, geometric mean of intracellular staining (MUX melanoma cell line; [9]) | TRP-2, geometric mean of intracellular staining (MUX melanoma cell line; [9]) | gp100, geometric mean of intracellular staining (MUX melanoma cell line; [9]) | MHC Class I, geometric mean of surface staining (W6/32) (MUX melanoma cell line; [10]) | MHC Class I, geometric mean of surface staining (W6/32) (MUX melanoma cell line; [11]) | MHC Class I, geometric mean of surface staining (W6/32) (MUX melanoma cell line; [12]) | other results
CCc1cc(-c2n[nH]c(C)c2-c2ccc3c(c2)OCCO3)c(O)cc1O [CCT018159] | 2 days | 70 | 13 | 37 | 32 | 181 | 139 | 119 | 70 | 174 | 22 | 40 | 40 | 599 | 397 | 265 | HMB45, level of induction relative to untreated control cells [2]: 1.81; MART-1, level of induction relative to untreated control cells [2]: 3.04; Class I, fold increase relative to untreated control (A375 melanoma cell line; [3]): 1.9 fold; MART-1, fold increase relative to untreated control (A375 melanoma cell line; [3]): 2.2 fold; TRP-2, fold increase relative to untreated control (A375 melanoma cell line; [3]): 2.3 fold; gp100, fold increase relative to untreated control (A375 melanoma cell line; [3]): 2.1 fold; HMB45, level of induction relative to untreated control cells (MUX melanoma cell line; [8]): 1.89; MART-1, level of induction relative to untreated control cells (MUX melanoma cell line; [8]): 1.64; Class I, fold increase relative to untreated control (MUX melanoma cell line; [9]): 1.7 fold; MART-1, fold increase relative to untreated control (MUX melanoma cell line; [9]): 1.7 fold; TRP-2, fold increase relative to untreated control (MUX melanoma cell line; [9]): 1.0 fold; gp100, fold increase relative to untreated control (MUX melanoma cell line; [9]): 1.5 fold; MHC Class I, geometric mean of surface staining (W6/32) (MUX melanoma cell line; MUX, three days, IFN-β 5000 Units/ml, 17-AEP 1 μg/ml, PU-H71 0.3 μg/ml, CCT018159 10 μg/ml): 174; HMB45, level of induction relative to untreated control cells (453A melanoma cell line): 3.38; MART-1, level of induction relative to untreated control cells (453A melanoma cell line): 3.29
CO[C@H]1/C=C\C=C(/C)C(=O)NC2=CC(=O)C(NCCN3CCCC3)=C(C[C@@H](C)C[C@H](OC)[C@H](O)[C@@H](C)/C=C(\C)[C@@H]1OC(N)=O)C2=O [17-AEP] | 2 days | 67 | 11 | 31 | 22 | 144 | 90 | 109 | 67 | 219 | 19 | 48 | 34 | 615 | 496 | 286 | 
